These results are taken from US20070249620A1, “Urea Derivative” (priority 2004, published 2007).

`CCOP(=O)(Cc1ccc(NC(=O)Nc2ccc(N3CCN(C(=O)Nc4c(C)cccc4Cl)CC3)cc2)cc1)OCC` returned a melting point of 218 to 220 °C.
`COc1ccc(Cl)cc1NC(=O)Nc1ccc(N2CCN(C(=O)OC(C)(C)C)CC2)cc1` [Example 1, 4-{4-[3-(5-chloro-2-methoxy-phenyl)-ureido]-phenyl}-piperazine-1-carboxylic acid tert-butyl ester] returned a melting point of 205 °C.
In the case of `COc1ccc(C)cc1NC(=O)Nc1ccc(N2CCN(C(=O)OC(C)(C)C)CC2)cc1` [Example 2, 4-{4-[3-(2-methoxy-5-methyl-phenyl)-ureido]-phenyl}-piperazine-1-carboxylic acid tert-butyl ester] it was 157 °C; in that of `CC(C)(C)OC(=O)N1CCN(c2ccc(NC(=O)Nc3cccc(Oc4ccccc4)c3)cc2)CC1` [Example 3, 4-{4-[3-(3-phenoxy-phenyl)-ureido]-phenyl}-piperazine-1-carboxylic acid tert-butyl ester], 172 °C; in that of `CCOc1ccccc1NC(=O)Nc1ccc(N2CCN(C(=O)OC(C)(C)C)CC2)cc1` [Example 4, 4-{4-[3-(2-ethoxy-phenyl)-ureido]-phenyl}-piperazine-1-carboxylic acid tert-butyl ester], 84 °C.
`CC(C)(C)OC(=O)N1CCN(c2ccc(NC(=O)Nc3ccccc3[N+](=O)[O-])cc2)CC1` [Example 6, 4-{4-[3-(2-nitro-phenyl)-ureido]-phenyl}-piperazine-1-carboxylic acid tert-butyl ester] displayed a melting point of 207 °C.
Consider `CC(C)(C)OC(=O)N1CCN(c2ccc(NC(=O)Nc3ccccc3Oc3ccccc3)cc2)CC1` [Example 7, 4-{4-[3-(2-phenoxy-phenyl)-ureido]-phenyl}-piperazine-1-carboxylic acid tert-butyl ester], for which the melting point was 186 to 187 °C.
Turning to `CC(C)(C)OC(=O)N1CCN(c2ccc(NC(=O)Nc3cc(Cl)ccc3Oc3ccccc3)cc2)CC1` [Example 8, 4-{4-[3-(5-chloro-2-phenoxy-phenyl)-ureido]-phenyl}-piperazine-1-carboxylic acid tert-butyl ester], the melting point was in the range of 94 to 96 °C.
`CC(C)(C)OC(=O)N1CCN(c2ccc(NC(=O)Nc3ccccc3OC(F)F)cc2)CC1` [Example 9, 4-{4-[3-(2-difluoromethoxy-phenyl)-ureido]-phenyl}-piperazine-1-carboxylic acid tert-butyl ester]: the melting point lay within 154 to 155 °C.
In the case of `CC(C)(C)OC(=O)N1CCN(c2ccc(NC(=O)Nc3cc(Cl)ccc3[N+](=O)[O-])cc2)CC1` [Example 10, 4-{4-[3-(5-chloro-2-nitro-phenyl)-ureido]-phenyl}-piperazine-1-carboxylic acid tert-butyl ester], the melting point turned out to be 205 °C.
The compound `CC(C)(C)OC(=O)N1CCN(c2ccc(NC(=O)Nc3cc(Cl)ccc3N)cc2)CC1` [Example 11, 4-{4-[3-(2-amino-5-chloro-phenyl)-ureido]-phenyl}-piperazine-1-carboxylic acid tert-butyl ester] gave a melting point of 187 to 189 °C.
`CC(C)(C)OC(=O)N1CCN(c2ccc(NC(=O)Nc3cc(Cl)ccc3NS(C)(=O)=O)cc2)CC1` [Example 12, 4-{4-[3-(5-chloro-2-methanesulfonylamino-phenyl)-ureido]-phenyl}-piperazine-1-carboxylic acid tert-butyl ester] registered a melting point of 127 °C.
In turn, `COc1ccccc1NC(=O)Nc1ccc(N2CCN(C(=O)OC(C)(C)C)CC2)cc1` [Example 13, 4-{4-[3-(2-methoxy-phenyl)-ureido]-phenyl}-piperazine-1-carboxylic acid tert-butyl ester] came in with a melting point of 184 °C.
`CC(C)(C)OC(=O)N1CCN(c2ccc(NC(=O)Nc3ccccc3F)cc2)CC1` [Example 14, 4-{4-[3-(2-fluoro-phenyl)-ureido]-phenyl}-piperazine-1-carboxylic acid tert-butyl ester] came in with a melting point of 164 to 166 °C.
Compound `CC(C)(C)OC(=O)N1CCN(c2ccc(NC(=O)Nc3ccccc3Cl)cc2)CC1` [Example 15, 4-{4-[3-(2-chloro-phenyl)-ureido]-phenyl}-piperazine-1-carboxylic acid tert-butyl ester] registered a melting point of 196 to 197 °C.
In the case of `Cc1ccccc1NC(=O)Nc1ccc(N2CCN(C(=O)OC(C)(C)C)CC2)cc1` [Example 16, 4-[4-(3-o-tolyl-ureido)-phenyl]-piperazine-1-carboxylic acid tert-butyl ester] it was 188 to 191 °C.
With `CCc1ccccc1NC(=O)Nc1ccc(N2CCN(C(=O)OC(C)(C)C)CC2)cc1` [Example 17, 4-{4-[3-(2-ethyl-phenyl)-ureido]-phenyl}-piperazine-1-carboxylic acid tert-butyl ester] the figure was 162 °C.
Consider `CCCc1ccccc1NC(=O)Nc1ccc(N2CCN(C(=O)OC(C)(C)C)CC2)cc1` [Example 18, 4-{4-[3-(2-propyl-phenyl)-ureido]-phenyl}-piperazine-1-carboxylic acid tert-butyl ester], for which the melting point fell in the range of 177 to 181 °C.
With `Cc1ccc(C)c(NC(=O)Nc2ccc(N3CCN(C(=O)OC(C)(C)C)CC3)cc2)c1` [Example 19, 4-{4-[3-(2,5-dimethyl-phenyl)-ureido]-phenyl}-piperazine-1-carboxylic acid tert-butyl ester] the figure was 219 to 220 °C; with `CN(C)c1ccc(NC(=O)Nc2ccc(N3CCN(C(=O)OC(C)(C)C)CC3)cc2)cc1` [Example 20, 4-{4-[3-(4-dimethylamino-phenyl)-ureido]-phenyl}-piperazine-1-carboxylic acid tert-butyl ester], 207 °C; with `CCC(C)c1ccccc1NC(=O)Nc1ccc(N2CCN(C(=O)OC(C)(C)C)CC2)cc1` (centres unmarked) [Example 21, 4-{4-[3-(2-sec-butyl-phenyl)-ureido]-phenyl}-piperazine-1-carboxylic acid tert-butyl ester], 177 °C.
With `CCOc1ccc(NC(=O)Nc2ccc(N3CCN(C(=O)OC(C)(C)C)CC3)cc2)cc1` [Example 23, 4-{4-[3-(4-ethoxy-phenyl)-ureido]-phenyl}-piperazine-1-carboxylic acid tert-butyl ester] the figure was 198 to 200 °C; with `CCc1ccc(NC(=O)Nc2ccc(N3CCN(C(=O)OC(C)(C)C)CC3)cc2)cc1` [Example 24, 4-{4-[3-(4-ethyl-phenyl)-ureido]-phenyl}-piperazine-1-carboxylic acid tert-butyl ester], 204 to 205 °C.
With `CCC(C)c1ccc(NC(=O)Nc2ccc(N3CCN(C(=O)OC(C)(C)C)CC3)cc2)cc1` (centres unmarked) [Example 25, 4-{4-[3-(4-sec-butyl-phenyl)-ureido]-phenyl}-piperazine-1-carboxylic acid tert-butyl ester] the figure was 201 to 202 °C.
The compound `CCCCOc1ccc(NC(=O)Nc2ccc(N3CCN(C(=O)OC(C)(C)C)CC3)cc2)cc1` [Example 26, 4-{4-[3-(4-butoxy-phenyl)-ureido]-phenyl}-piperazine-1-carboxylic acid tert-butyl ester] had a melting point of 185 to 188 °C.
With `CC(C)(C)OC(=O)N1CCN(c2ccc(NC(=O)Nc3cc(C(F)(F)F)ccc3F)cc2)CC1` [Example 27, 4-{4-[3-(2-fluoro-5-trifluoromethyl-phenyl)-ureido]-phenyl}-piperazine-1-carboxylic acid tert-butyl ester] the figure was 241 °C; with `CC(C)(C)OC(=O)N1CCN(c2ccc(NC(=O)Nc3cc(C(F)(F)F)ccc3Cl)cc2)CC1` [Example 28, 4-{4-[3-(2-chloro-5-trifluoromethyl-phenyl)-ureido]-phenyl}-piperazine-1-carboxylic acid tert-butyl ester], 221 to 223 °C; with `Cc1ccc(Cl)c(NC(=O)Nc2ccc(N3CCN(C(=O)OC(C)(C)C)CC3)cc2)c1` [Example 29, 4-{4-[3-(2-chloro-5-methyl-phenyl)-ureido]-phenyl}-piperazine-1-carboxylic acid tert-butyl ester], 222 to 224 °C.
With `CCc1cccc(NC(=O)Nc2ccc(N3CCN(C(=O)OC(C)(C)C)CC3)cc2)c1` [Example 30, 4-{4-[3-(3-ethyl-phenyl)-ureido]-phenyl}-piperazine-1-carboxylic acid tert-butyl ester] the figure was 160 °C; with `Cc1cccc(NC(=O)Nc2ccc(N3CCN(C(=O)OC(C)(C)C)CC3)cc2)c1` [Example 31, 4-[4-(3-m-tolyl-ureido)-phenyl]-piperazine-1-carboxylic acid tert-butyl ester], 169 to 172 °C; with `CC(C)(C)OC(=O)N1CCN(c2ccc(NC(=O)Nc3cccc(Cl)c3)cc2)CC1` [Example 32, 4-{4-[3-(3-chloro-phenyl)-ureido]-phenyl}-piperazine-1-carboxylic acid tert-butyl ester], 163 °C.
In turn, `CCCCc1ccc(NC(=O)Nc2ccc(N3CCN(C(=O)OC(C)(C)C)CC3)cc2)cc1` [Example 34, 4-{4-[3-(4-butyl-phenyl)-ureido]-phenyl}-piperazine-1-carboxylic acid tert-butyl ester] returned a melting point of 167 to 170 °C.
As for `Cc1ccc(F)cc1NC(=O)Nc1ccc(N2CCN(C(=O)OC(C)(C)C)CC2)cc1` [Example 36, 4-{4-[3-(5-fluoro-2-methyl-phenyl)-ureido]-phenyl}-piperazine-1-carboxylic acid tert-butyl ester], the melting point lay within 206 to 208 °C.
`COc1ccc(C)cc1NC(=O)Nc1ccc(N2CCN(C(=O)OC(C)(C)C)CC2)nc1` [Example 38, 4-{5-[3-(2-methoxy-5-methyl-phenyl)-ureido]-pyridin-2-yl}-piperazine-1-carboxylic acid tert-butyl ester] returned a melting point of 185 to 186 °C.
With `CCOc1ccc(C)cc1NC(=O)Nc1ccc(N2CCN(C(=O)OC(C)(C)C)CC2)cc1` [Example 41, 4-{4-[3-(2-ethoxy-5-methyl-phenyl)-ureido]-phenyl}-piperazine-1-carboxylic acid tert-butyl ester] the figure was 105 to 107 °C.
